# Data published in patent US20050136536A1, “Embryonic epithelial cells” (priority 2003, published 2005).
# Test system: cytokeratin 7
# Experiment: differentiation of hES cells on gelatin-coated glass slides, cytokeratin 7 staining
# Assay type: cell-based, human
# Settings: 300 nM AM580, serum medium, stained after 6 or 8 days
# Description: H9 cells (Thomson, J. A., et al., “Embryonic stem cells lines derived from human blastocysts”, Science 282, 1145-1147 (1998)) were grown as described in Spradling, A., et al., “Stem cells find their niche”, Nature 414, 98-104 (2001), the entire contents of which are incorporated herein by reference. C2C12 cells were grown as described in Yaffee, D. & Saxel, O., “Serial passaging and differentiation of myogenic cells isolated from dystrophic mouse muscle”, Nature 270, 725-7 (1977). Specifically, hES cells (H9 clone) were grown on mouse embryo fibroblasts (Cell Essential) in KnockOut Medium (Gibco-BRL, Gaithersburg, Md.), a modified version of Dulbeco's modified Eagle's medium optimized for ES cells (Itskovitz-Eldor, et. al., (2000) Mol. Med. 6, 88-95, the contents of which are incorporated herein by reference). Tissue cover plates were covered with 0.1% gelatin (Sigma). Culture were grown in 5% CO2 and were routinely passaged every 5-6 days after disaggregating with 1 mg/ml collagenase type IV (Gibco-BRL). To induce formation of EBs, hES colonies were digested using either 1 mg/ml collagenase type IV or trypsin/EDTA (0.1%/1 mM) and transferred to petri dishes to allow their aggregation and prevent adherence to the plate. […]
compound,measurement,value
CC1(C)CCC(C)(C)c2cc(C(=O)Nc3ccc(C(=O)O)cc3)ccc21 [AM580],development of cytokeratin 7-positive cells,increases the development of cytokeratin 7-positive cells
